# Like-named read-outs stand apart in the source and are kept apart here.
# How the values were obtained:
# Test in all cases: biochemical
# Format in all cases: binding
# [1] = target: panel of 468 diverse kinases (Homo sapiens, UniProt P23458); details: 1000 nM, read-out: Percent Control
# [2] = target: panel of 468 diverse kinases (Homo sapiens, UniProt Q8WXR4); details: MYO3B; 1000 nM; read-out: Percent Control
# [3] = target: panel of 468 diverse kinases (Homo sapiens, UniProt P36888, D835Y); details: FLT3(D835Y); 1000 nM; read-out: Percent Control
# [4] = target: panel of 468 diverse kinases (Homo sapiens, UniProt P49137); details: MAPKAPK2; 1000 nM; read-out: Percent Control
# [5] = target: panel of 468 diverse kinases (Homo sapiens, UniProt P41240); details: CSK; 1000 nM; read-out: Percent Control
# [6] = target: panel of 468 diverse kinases (Homo sapiens, UniProt O43318); details: TAK1; 1000 nM; read-out: Percent Control
# [7] = target: panel of 468 diverse kinases (Homo sapiens, UniProt P07949, V804L); details: RET(V804L); 1000 nM; read-out: Percent Control
# [8] = target: panel of 468 diverse kinases (Homo sapiens, UniProt P23443); details: S6K1; 1000 nM; read-out: Percent Control
# [9] = target: panel of 468 diverse kinases (Homo sapiens, UniProt P42685); details: FRK; 1000 nM; read-out: Percent Control
# [10] = target: panel of 468 diverse kinases (Homo sapiens, UniProt Q15759); details: p38-beta; 1000 nM; read-out: Percent Control
# [11] = target: panel of 468 diverse kinases (Homo sapiens, UniProt Q14680); details: MELK; 1000 nM; read-out: Percent Control
# [12] = target: panel of 468 diverse kinases (Homo sapiens, UniProt P00519, T315I); details: 1000 nM, read-out: Percent Control
# [13] = target: panel of 468 diverse kinases (Homo sapiens, UniProt Q59H18); details: TNNI3K; 1000 nM; read-out: Percent Control
# [14] = target: panel of 468 diverse kinases (Homo sapiens, UniProt Q8IU85); details: CAMK1D; 1000 nM; read-out: Percent Control
# [15] = target: panel of 468 diverse kinases (Homo sapiens, UniProt Q8WU08); details: YANK1; 1000 nM; read-out: Percent Control
# [16] = target: panel of 468 diverse kinases (Homo sapiens, UniProt Q13188); details: MST2; 1000 nM; read-out: Percent Control
# [17] = target: panel of 468 diverse kinases (Homo sapiens, UniProt P06241); details: FYN; 1000 nM; read-out: Percent Control
# [18] = target: panel of 468 diverse kinases (Homo sapiens, UniProt P78368); details: CSNK1G2; 1000 nM; read-out: Percent Control
# [19] = target: panel of 468 diverse kinases (Homo sapiens, UniProt O00444); details: PLK4; 1000 nM; read-out: Percent Control
# [20] = target: panel of 468 diverse kinases (Homo sapiens, UniProt Q9UKI8); details: TLK1; 1000 nM; read-out: Percent Control
# [21] = target: panel of 468 diverse kinases (Homo sapiens, UniProt Q15569); details: TESK1; 1000 nM; read-out: Percent Control
# [22] = target: panel of 468 diverse kinases (Homo sapiens, UniProt Q9HAZ1); details: CLK4; 1000 nM; read-out: Percent Control
# [23] = target: panel of 468 diverse kinases (Homo sapiens, UniProt P42336, C420R); details: PIK3CA(C420R); 1000 nM; read-out: Percent Control
# [24] = target: panel of 468 diverse kinases (Homo sapiens, UniProt Q15375); details: EPHA7; 1000 nM; read-out: Percent Control
# [25] = target: panel of 468 diverse kinases (Homo sapiens, UniProt Q9UEE5); details: DRAK1; 1000 nM; read-out: Percent Control
# [26] = target: panel of 468 diverse kinases (Homo sapiens, UniProt Q9Y2H9); details: MAST1; 1000 nM; read-out: Percent Control
# [27] = target: panel of 468 diverse kinases (Homo sapiens, UniProt P35590); details: TIE1; 1000 nM; read-out: Percent Control
# [28] = target: panel of 468 diverse kinases (Homo sapiens, UniProt P10721, A829P); details: KIT(A829P); 1000 nM; read-out: Percent Control
# [29] = target: panel of 468 diverse kinases (Homo sapiens, UniProt O14976); details: GAK; 1000 nM; read-out: Percent Control
# [30] = target: panel of 468 diverse kinases (Homo sapiens, UniProt P00533, G719C); details: EGFR(G719C); 1000 nM; read-out: Percent Control
# Sequence of panel of 468 diverse kinases (Homo sapiens, UniProt P10721, A829P) (P10721 26-976 A829P limits assumed): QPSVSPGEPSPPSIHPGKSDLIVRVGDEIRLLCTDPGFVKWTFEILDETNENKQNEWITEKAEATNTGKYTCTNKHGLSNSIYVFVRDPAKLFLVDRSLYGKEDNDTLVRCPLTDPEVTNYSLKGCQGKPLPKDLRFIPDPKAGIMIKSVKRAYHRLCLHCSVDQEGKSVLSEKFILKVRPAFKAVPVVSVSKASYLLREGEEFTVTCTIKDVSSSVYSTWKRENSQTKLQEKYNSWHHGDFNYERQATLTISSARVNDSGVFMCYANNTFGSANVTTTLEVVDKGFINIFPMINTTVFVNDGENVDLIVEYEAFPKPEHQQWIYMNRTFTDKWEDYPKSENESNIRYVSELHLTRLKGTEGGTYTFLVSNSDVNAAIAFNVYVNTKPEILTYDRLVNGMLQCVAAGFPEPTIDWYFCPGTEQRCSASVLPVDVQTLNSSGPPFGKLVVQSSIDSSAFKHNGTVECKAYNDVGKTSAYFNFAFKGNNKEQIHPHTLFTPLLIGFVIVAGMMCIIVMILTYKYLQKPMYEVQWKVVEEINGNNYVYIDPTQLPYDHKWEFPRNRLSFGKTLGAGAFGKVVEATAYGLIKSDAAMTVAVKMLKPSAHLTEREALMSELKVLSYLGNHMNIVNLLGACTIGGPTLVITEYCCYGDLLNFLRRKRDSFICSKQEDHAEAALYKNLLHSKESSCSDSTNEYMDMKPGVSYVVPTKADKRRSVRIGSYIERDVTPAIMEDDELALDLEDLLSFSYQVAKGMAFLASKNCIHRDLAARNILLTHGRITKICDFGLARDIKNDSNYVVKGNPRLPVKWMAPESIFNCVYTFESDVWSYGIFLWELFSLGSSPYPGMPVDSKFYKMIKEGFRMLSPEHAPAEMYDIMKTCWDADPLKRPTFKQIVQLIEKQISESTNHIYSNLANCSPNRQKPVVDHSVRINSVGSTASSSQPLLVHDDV
# Sequence of panel of 468 diverse kinases (Homo sapiens, UniProt O14976) (O14976 2-1311 limits assumed): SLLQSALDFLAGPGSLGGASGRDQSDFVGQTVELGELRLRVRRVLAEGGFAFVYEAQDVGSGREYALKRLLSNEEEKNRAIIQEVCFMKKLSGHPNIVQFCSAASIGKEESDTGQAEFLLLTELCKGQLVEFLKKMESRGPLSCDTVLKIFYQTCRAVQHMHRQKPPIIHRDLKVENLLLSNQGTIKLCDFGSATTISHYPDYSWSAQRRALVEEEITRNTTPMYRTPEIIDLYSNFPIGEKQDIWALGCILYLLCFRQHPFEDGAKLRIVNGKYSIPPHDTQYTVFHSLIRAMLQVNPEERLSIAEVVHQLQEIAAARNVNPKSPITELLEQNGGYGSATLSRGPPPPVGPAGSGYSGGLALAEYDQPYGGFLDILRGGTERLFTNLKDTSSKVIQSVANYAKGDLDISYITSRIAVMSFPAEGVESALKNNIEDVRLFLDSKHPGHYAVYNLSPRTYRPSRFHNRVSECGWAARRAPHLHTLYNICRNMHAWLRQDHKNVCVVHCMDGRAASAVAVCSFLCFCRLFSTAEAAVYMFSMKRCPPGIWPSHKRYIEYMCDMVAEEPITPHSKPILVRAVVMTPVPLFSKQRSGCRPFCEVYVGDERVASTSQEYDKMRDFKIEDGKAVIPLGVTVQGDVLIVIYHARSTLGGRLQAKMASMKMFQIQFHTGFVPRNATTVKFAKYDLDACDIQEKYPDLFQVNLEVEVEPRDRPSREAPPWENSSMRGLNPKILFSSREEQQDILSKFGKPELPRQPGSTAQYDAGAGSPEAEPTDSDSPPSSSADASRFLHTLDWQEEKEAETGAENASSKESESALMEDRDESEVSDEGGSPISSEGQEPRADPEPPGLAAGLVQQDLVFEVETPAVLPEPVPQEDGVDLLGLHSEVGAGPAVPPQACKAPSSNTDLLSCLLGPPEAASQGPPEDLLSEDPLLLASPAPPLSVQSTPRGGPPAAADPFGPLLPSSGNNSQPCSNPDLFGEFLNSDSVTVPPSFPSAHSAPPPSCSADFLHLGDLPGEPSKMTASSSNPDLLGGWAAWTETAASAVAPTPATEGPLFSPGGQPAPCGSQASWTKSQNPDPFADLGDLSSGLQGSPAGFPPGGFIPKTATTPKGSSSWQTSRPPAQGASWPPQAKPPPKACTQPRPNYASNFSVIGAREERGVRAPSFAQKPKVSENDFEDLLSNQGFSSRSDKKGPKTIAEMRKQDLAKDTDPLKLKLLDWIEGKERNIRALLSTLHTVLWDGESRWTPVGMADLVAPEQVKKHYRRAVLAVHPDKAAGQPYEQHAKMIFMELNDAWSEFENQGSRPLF
# Sequence of panel of 468 diverse kinases (Homo sapiens, UniProt Q15375) (Q15375 28-998 limits assumed): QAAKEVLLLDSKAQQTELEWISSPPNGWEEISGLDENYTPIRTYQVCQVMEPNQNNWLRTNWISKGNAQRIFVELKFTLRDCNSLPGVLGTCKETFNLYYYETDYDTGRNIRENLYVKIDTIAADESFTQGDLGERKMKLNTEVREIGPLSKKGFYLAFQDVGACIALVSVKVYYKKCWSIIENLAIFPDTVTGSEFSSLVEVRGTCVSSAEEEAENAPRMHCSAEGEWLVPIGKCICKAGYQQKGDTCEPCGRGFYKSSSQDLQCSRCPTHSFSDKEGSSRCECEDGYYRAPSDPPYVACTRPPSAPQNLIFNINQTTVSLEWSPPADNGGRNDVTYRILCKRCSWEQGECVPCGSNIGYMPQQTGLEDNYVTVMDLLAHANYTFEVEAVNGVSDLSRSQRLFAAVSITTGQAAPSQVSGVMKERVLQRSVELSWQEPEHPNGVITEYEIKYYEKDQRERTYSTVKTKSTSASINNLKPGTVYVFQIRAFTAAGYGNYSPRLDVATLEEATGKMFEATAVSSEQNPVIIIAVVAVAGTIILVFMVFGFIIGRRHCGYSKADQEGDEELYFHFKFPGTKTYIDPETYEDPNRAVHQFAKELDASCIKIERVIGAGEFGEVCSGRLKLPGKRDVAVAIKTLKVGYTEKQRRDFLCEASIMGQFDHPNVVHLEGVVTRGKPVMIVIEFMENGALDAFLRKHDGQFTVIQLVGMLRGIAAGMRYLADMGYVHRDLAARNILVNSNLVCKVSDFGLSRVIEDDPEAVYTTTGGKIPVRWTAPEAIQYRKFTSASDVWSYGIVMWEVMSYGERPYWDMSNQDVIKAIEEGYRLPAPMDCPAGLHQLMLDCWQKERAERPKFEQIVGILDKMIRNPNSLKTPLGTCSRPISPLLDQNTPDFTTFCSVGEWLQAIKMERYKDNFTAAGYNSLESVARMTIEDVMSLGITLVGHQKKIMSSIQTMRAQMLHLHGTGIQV
# Sequence of panel of 468 diverse kinases (Homo sapiens, UniProt Q8WU08) (Q8WU08 2-396 limits assumed): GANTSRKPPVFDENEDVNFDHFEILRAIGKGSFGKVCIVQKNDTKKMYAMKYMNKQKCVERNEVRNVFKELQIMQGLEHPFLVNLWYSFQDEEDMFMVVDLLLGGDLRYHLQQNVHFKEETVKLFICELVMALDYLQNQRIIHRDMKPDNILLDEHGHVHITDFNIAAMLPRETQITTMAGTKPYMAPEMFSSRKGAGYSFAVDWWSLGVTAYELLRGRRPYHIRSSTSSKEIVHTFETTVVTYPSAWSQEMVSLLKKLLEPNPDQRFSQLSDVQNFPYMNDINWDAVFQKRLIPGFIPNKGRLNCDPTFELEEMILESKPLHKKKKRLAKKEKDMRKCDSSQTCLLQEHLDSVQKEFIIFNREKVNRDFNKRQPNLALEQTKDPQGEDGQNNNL
# Sequence of panel of 468 diverse kinases (Homo sapiens, UniProt P41240) (P41240 2-450 limits assumed): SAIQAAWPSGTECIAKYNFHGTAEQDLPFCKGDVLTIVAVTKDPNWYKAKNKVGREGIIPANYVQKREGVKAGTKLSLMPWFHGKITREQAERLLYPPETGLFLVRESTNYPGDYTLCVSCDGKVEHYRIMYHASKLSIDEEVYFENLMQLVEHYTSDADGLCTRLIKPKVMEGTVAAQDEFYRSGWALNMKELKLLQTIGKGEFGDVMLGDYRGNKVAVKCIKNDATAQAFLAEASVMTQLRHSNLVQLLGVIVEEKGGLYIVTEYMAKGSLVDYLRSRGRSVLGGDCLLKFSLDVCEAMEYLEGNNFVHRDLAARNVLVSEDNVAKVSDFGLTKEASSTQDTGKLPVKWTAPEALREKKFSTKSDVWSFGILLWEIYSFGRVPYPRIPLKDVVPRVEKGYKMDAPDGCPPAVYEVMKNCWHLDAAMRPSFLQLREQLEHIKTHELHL
# Sequence of panel of 468 diverse kinases (Homo sapiens, UniProt P06241) (P06241 2-537 limits assumed): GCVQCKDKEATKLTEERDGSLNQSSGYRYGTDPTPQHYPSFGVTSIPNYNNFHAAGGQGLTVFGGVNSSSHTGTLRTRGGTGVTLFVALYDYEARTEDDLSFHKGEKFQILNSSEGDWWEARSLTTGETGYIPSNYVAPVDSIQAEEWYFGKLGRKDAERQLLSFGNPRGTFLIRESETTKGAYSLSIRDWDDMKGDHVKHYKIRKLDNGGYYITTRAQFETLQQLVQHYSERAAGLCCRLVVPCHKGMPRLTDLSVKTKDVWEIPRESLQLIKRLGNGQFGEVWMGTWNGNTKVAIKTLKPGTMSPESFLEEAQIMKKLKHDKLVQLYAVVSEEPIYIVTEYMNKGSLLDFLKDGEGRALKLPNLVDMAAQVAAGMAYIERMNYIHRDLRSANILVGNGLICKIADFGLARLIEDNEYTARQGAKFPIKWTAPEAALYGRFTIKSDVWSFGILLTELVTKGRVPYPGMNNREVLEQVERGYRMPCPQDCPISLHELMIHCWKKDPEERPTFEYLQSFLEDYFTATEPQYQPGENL
smiles,measurement,setting,value
COc1cc2nc(NC3CC3)nc(NC3CCN(C(C)C)CC3)c2cc1OC [Formula IV],remaining activity at 1 µM,[1]; JAK1(JH1domain-catalytic),96%
same,remaining activity at 1 µM,[1]; JAK1(JH2domain-pseudokinase),51%
same,remaining activity at 1 µM,[2],91%
same,remaining activity at 1 µM,[3],88%
same,remaining activity at 1 µM,[4],100%
same,remaining activity at 1 µM,[5],98%
same,remaining activity at 1 µM,[6],84%
same,remaining activity at 1 µM,[7],75%
same,remaining activity at 1 µM,[8],50%
same,remaining activity at 1 µM,[9],100%
same,remaining activity at 1 µM,[10],87%
same,remaining activity at 1 µM,[11],85%
same,remaining activity at 1 µM,[12]; ABL1(T315I)-nonphosphorylated,100%
same,remaining activity at 1 µM,[12]; ABL1(T315I)-phosphorylated,49%
same,remaining activity at 1 µM,[13],96%
same,remaining activity at 1 µM,[14],100%
same,remaining activity at 1 µM,[15],95%
same,remaining activity at 1 µM,[16],100%
same,remaining activity at 1 µM,[17],100%
same,remaining activity at 1 µM,[18],86%
same,remaining activity at 1 µM,[19],58%
same,remaining activity at 1 µM,[20],90%
same,remaining activity at 1 µM,[21],100%
same,remaining activity at 1 µM,[22],69%
same,remaining activity at 1 µM,[23],91%
same,remaining activity at 1 µM,[24],93%
same,remaining activity at 1 µM,[25],96%
same,remaining activity at 1 µM,[26],72%
same,remaining activity at 1 µM,[27],97%
same,remaining activity at 1 µM,[28],78%
same,remaining activity at 1 µM,[29],92%
same,remaining activity at 1 µM,[30],91%
